Experimental data taken from patent publication US11555047B2, “One-step synthesis of phosphate-based inhibitors and applications thereof” (UNIVERSITY OF SOUTH CAROLINA, priority 2019, dated 2023).
Read-outs that look alike come from different tables or passages of the source.

What was measured:
[1] = molecular target: T1, TcRPI-B (Trypanosoma cruzi, UniProt A0ACM8Q8A9); conditions: known TcRPI-B inhibitors, FIG. 2; cited from earlier work
[2] = molecular target: T1, TcRPI-B; experiment: TcRPI-B coupled enzyme assay following consumption of NADH at 340 nm; type: biochemical; conditions: for activity at 200 µM: compound 0.2 mM; for activity at 200 µM / activity at 500 µM / activity at 1000 µM / activity at 2000 µM: 2 mM R5P, mean of three determinations ± SD, read-out: percentage of TcRPI-B activity; for activity at 500 µM: compound 0.5 mM; for activity at 1000 µM: compound 1.0 mM; for activity at 2000 µM: compound 2.0 mM
Experimental: (§1) The activity of TcRPI-B was determined by a coupled enzyme assay following consumption of NADH at 340 nm, at 30° C., in a Beckman Coulter DU®600 Spectrophotometer, using a mixture containing 50 mM triethanolamine (pH 7.5), 5 mM MgCl2, […], 0.025 mM thiamine pyrophosphate, 1 unit of transketolase (EC 2.2.1.1), 1 unit of ribulose 5-phosphate 3-epimerase (EC 5.1.3.1), 20 units of triosephosphate isomerase (EC 5.3.1.1), 2 units of α-glycerophosphate dehydrogenase (EC 1.1.1.8), and 2 mM R5P for the screening of the inhibitors. For the determination of Ki, the concentration of R5P was 0.4 mM, 0.8 mM, and 2.0 mM.
(§2) The activity of TcRPE-1 was determined in the same reaction mixture, without TcRPI-B, and replacing R5P by 4 mM ribulose 5-phosphate (Ru5P). […] The reaction was started with the addition of TcRPI-B and further incubated for 10 minutes in the same tube, to surpass the lag observed with the recombinant RPI, and then the mixture was transferred to the spectrophotometer cuvette and the linear part of the progress curve was registered for 15 minutes. The screening of the inhibitors was performed using them at 0, 0.2, 0.5, 1.0 and 2.0 mM for both enzymes, TcRPI-B and TcRPE-1, and for the Ki determination for compound B (FIG. 4) the concentrations used were: 0, 10, 20, 40, 60 and 80 μM, at each R5P concentration used.

[3] = system: TcRPE-1; experiment: TcRPE-1 coupled enzyme assay (same reaction mixture, without TcRPI-B, 4 mM Ru5P); type: biochemical, Trypanosoma cruzi; conditions: mean of three determinations ± SD
Experimental: as §1, §2

[4] = molecular target: T1, TcRPI-B; experiment: Trypsin digestion LC/MSMS of TcRPI-B exposed to Compound B; type: binding; conditions: 500 μM compound, 100 μM TcRPI-B, 4° C., 30 minutes
Experimental: Sample preparation: Purified TcRPI-B was buffer exchanged into 50 mM ammonium bicarbonate (pH 8.0) by using a PD-10 desalting column (GE Life Sciences). The concentration of TcRPI-B was adjusted to 100 μM for the monomer [TcRPI-B: M.W.=19,816 g/mol; ε280=5,120 M^−1 cm^−1] using an Agilent 8453 UV-Visible spectrophotometer. A protein test sample was incubated with compound B (FIG. 2) at a final concentration of 500 μM at 4° C. for 30 minutes and a control sample was prepared that was in the absence of compound B. Samples to be analyzed by LC/MSMS were first quantitated for protein content using a Pierce™ bicinchoninic acid (BCA) Protein Assay Kit and normalized to 50 μg of protein by diluting the appropriate amount of sample in 50 mM ammonium bicarbonate. Normalized samples were digested with trypsin at a 50:1 protein:trypsin concentration. Samples were incubated for 4 hours and then aliquoted for LC-MS analysis.
Nanoflow LC: Chromatographic separation was achieved using a Thermo Scientific™ EASY-nLC™ 1200 system (Bremen, Germany). Pico-frit columns were purchased from New Objective (Woburn, Mass.) and bomb packed to a length of 20-30 cm with reverse phase ReproSil-Pur® 120 Å C18-AQ 3 μm particles (Dr. Maisch, Germany). […]

| SMILES | activity at 200 µM [2] [%] | activity at 500 µM [2] [%] | activity at 1000 µM [2] [%] | activity at 2000 µM [2] [%] | percentage of TcRPE-1 activity ([3]; compound 0.2 mM) [%] | percentage of TcRPE-1 activity ([3]; compound 0.5 mM) [%] | percentage of TcRPE-1 activity ([3]; compound 1.0 mM) [%] | percentage of TcRPE-1 activity ([3]; compound 2.0 mM) [%] | Ki ([2]; Dixon plots, R5P 0.4, 0.8 and 2 mM, inhibitor 0-80 μM, mean of four independent experiments, read-out: inhibition constant (Ki)) [µM] | type of inhibition ([2]; plot of [R5P]/V vs. [B], three lines parallel) | covalent labeling of TcRPI-B peptide V66-R86 [4] | Ki [1] [µM] |
| --- | --- | --- | --- | --- | --- | --- | --- | --- | --- | --- | --- | --- |
| O=C[C@H](O)[C@H](O)[C@H](O)[C@H](O)COP(=O)(O)O [AlI6P] |  |  |  |  |  |  |  |  |  |  |  | 15000 |
| O=C(NO)[C@H](O)[C@H](O)COP(=O)(O)O [Compound 4PEH, 4-phospho-D-erythronohydroxamic acid] |  |  |  |  |  |  |  |  |  |  |  | 1200 |
| O=C(Cc1ccccc1)NCCOP(=O)(O)O [Compound A, 2-(2-phenylacetamido)ethyl dihydrogen phosphate] | 98.1 ± 3.2 | 97.4 ± 0.5 | 95.3 ± 4.2 | 89.2 ± 3.5 | 100 ± 5 | 91.9 ± 4.3 | 87.4 ± 3.1 | 85.9 ± 4.4 |  |  |  |  |
| O=C(CF)NCCOP(=O)(O)O [Compound E, 2-(2-fluoroacetamido)ethyl dihydrogen phosphate] |  |  |  |  | 111 ± 10 | 103 ± 7 | 93.2 ± 11.1 | 83.5 ± 9.7 |  |  |  |  |

Now from value to compound, other results behind:

| activity at 200 µM [2] [%] | activity at 500 µM [2] [%] | activity at 1000 µM [2] [%] | activity at 2000 µM [2] [%] | percentage of TcRPE-1 activity ([3]; compound 0.2 mM) [%] | percentage of TcRPE-1 activity ([3]; compound 0.5 mM) [%] | percentage of TcRPE-1 activity ([3]; compound 1.0 mM) [%] | percentage of TcRPE-1 activity ([3]; compound 2.0 mM) [%] | Ki ([2]; Dixon plots, R5P 0.4, 0.8 and 2 mM, inhibitor 0-80 μM, mean of four independent experiments, read-out: inhibition constant (Ki)) [µM] | type of inhibition ([2]; plot of [R5P]/V vs. [B], three lines parallel) | covalent labeling of TcRPI-B peptide V66-R86 [4] | SMILES | Ki [1] [µM] |
| --- | --- | --- | --- | --- | --- | --- | --- | --- | --- | --- | --- | --- |
| 25.2 ± 3.5 | 7.5 ± 3.9 | 1.2 ± 0.3 | 0 | 89.5 ± 4 | 89.5 ± 4 | 103 ± 5 | 57.4 ± 0.4 | 5.5 ± 0.1 | competitive inhibition | bound irreversibly to C69 | O=C(CI)NCCOP(=O)(O)O [Compound B, 2-(2-iodoacetamido)ethyl dihydrogen phosphate] |  |
| 78.5 ± 4.8 | 62.7 ± 5.9 | 41.3 ± 2.7 | 18.3 ± 2.5 | 91.1 ± 5.1 | 85.8 ± 4.4 | 77.3 ± 7.5 | 65.1 ± 5.2 |  |  |  | O=C(CBr)NCCOP(=O)(O)O [Compound C, 2-(2-bromoacetamido)ethyl dihydrogen phosphate] |  |
| 107 ± 9 | 105 ± 7 | 98.5 ± 2.1 | 83.7 ± 8.9 | 100 ± 6 | 103 ± 5 | 95.5 ± 7.9 | 82.6 ± 12 |  |  |  | O=C(CCl)NCCOP(=O)(O)O [Compound D, 2-(2-chloroacetamido)ethyl dihydrogen phosphate] |  |
